Legend:
PDGFRβ kinase = PDGFRβ kinase (Homo sapiens (Human), UniProt P09619); experiment: PDGFRβ Kinase Assay (biochemical, poly-Glu-Tyr ELISA); settings: purified cytoplasmic domain PDGFR-b protein, 36 μM ATP
Protocol: Biochemical PDGFR3 kinase assays were performed in 96 well microtiter plates that were coated overnight with 75 μg of poly-Glu-Tyr (4:1) in 10 mM Phosphate Buffered Saline (PBS), pH 7.4. The coated plates were washed with 2 mls per well PBS+0.05% Tween-20 (PBS-T), blocked by incubation with PBS containing 1% BSA, then washed with 2 mls per well PBS-T prior to starting the reaction. Reactions were carried out in 100 μL reaction volumes containing 36 μM ATP in kinase buffer (50 mM Hepes buffer pH 7.4, 20 mM MgCl2, 0.1 mM MnCl2 and 0.2 mM Na3VO4). Test compounds were reconstituted in 100% DMSO and added to the reaction to give a final DMSO concentration of 5%. Reactions were initiated by the addition 20 ul per well of kinase buffer containing 200-300 ng purified cytoplasmic domain PDGFR-b protein (Millipore). Following a 60 minute incubation at 30° C., the reactions were washed 2 mls per well PBS-T. 100 μl of a monoclonal anti-phosphotyrosine antibody-peroxidase conjugate diluted 1:10,000 in PBS-T was added to the wells for 30 minutes. Following a 2 mls per well wash with PBS-Tween-20, 100 μl of O-Phenylenediamine Dihydrochloride in phosphate-citrate buffer, containing urea hydrogen peroxide, was added to the wells for 7-10 minutes as a colorimetric substrate for the peroxidase. The reaction was terminated by the addition of 100 μl of 2.5N H2SO4 to each well and read using a microplate ELISA reader set at 492 nm. IC50 values for compound inhibition were calculated directly from graphs of optical density (arbitrary units) versus compound concentration following subtraction of blank values.

VEGFR2 (KDR) kinase = VEGFR2 (KDR) kinase (Homo sapiens (Human), UniProt P35968); experiment: VEGFR2 Kinase Assay (biochemical KDR kinase assay, poly-Glu-Tyr ELISA); settings: purified cytoplasmic domain KDR protein, 2.7 μM ATP
Protocol: VEGFR2 kinase potency of select analogs was determined by the following assay:
Biochemical KDR kinase assays were performed in 96 well microtiter plates that were coated overnight with 75 μg/well of poly-Glu-Tyr (4:1) in 10 mM Phosphate Buffered Saline (PBS), pH 7.4. The coated plates were washed with 2 mls per well PBS+0.05% Tween-20 (PBS-T), blocked by incubation with PBS containing 1% BSA, then washed with 2 mls per well PBS-T prior to starting the reaction. Reactions were carried out in 100 μL reaction volumes containing 2.7 μM ATP in kinase buffer (50 mM Hepes buffer pH 7.4, 20 mM MgCl2, 0.1 mM MnCl2 and 0.2 mM Na3VO4). Test compounds were reconstituted in 100% DMSO and added to the reaction to give a final DMSO concentration of 5%. Reactions were initiated by the addition 20 ul per well of kinase buffer containing 200-300 ng purified cytoplasmic domain KDR protein (BPS Bioscience, San Diego, Calif.). Following a 15 minute incubation at 30° C., the reactions were washed 2 mls per well PBS-T. 100 μl of a monoclonal anti-phosphotyrosine antibody-peroxidase conjugate diluted 1:10,000 in PBS-T was added to the wells for 30 minutes. Following a 2 mis per well wash with PBS-Tween-20, 100μl of O-Phenylenediamine Dihydrochloride in phosphate-citrate buffer, containing urea hydrogen peroxide, was added to the wells for 7-10 minutes as a colorimetric substrate for the peroxidase. The reaction was terminated by the addition of 100 μl of 2.5N H2SO4 to each well and read using a microplate ELISA reader set at 492 nm. IC50 values for compound inhibition were calculated directly from graphs of optical density (arbitrary units) versus compound concentration following subtraction of blank values.

PDGFRβ kinase, sequence (P09619 554-1106): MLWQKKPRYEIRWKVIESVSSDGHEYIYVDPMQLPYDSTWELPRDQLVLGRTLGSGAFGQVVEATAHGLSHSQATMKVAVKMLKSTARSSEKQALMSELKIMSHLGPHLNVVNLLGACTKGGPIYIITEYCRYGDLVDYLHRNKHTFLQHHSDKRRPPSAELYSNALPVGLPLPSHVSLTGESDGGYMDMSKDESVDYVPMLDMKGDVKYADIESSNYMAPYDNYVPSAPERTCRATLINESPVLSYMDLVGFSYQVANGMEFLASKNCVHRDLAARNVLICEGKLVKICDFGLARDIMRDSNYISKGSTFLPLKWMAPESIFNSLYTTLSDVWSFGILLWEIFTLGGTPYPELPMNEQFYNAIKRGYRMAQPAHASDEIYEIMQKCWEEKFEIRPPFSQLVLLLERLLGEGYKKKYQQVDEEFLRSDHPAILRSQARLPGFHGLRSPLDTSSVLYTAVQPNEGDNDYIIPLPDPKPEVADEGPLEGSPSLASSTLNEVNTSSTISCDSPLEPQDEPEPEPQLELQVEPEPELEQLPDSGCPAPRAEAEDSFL
VEGFR2 (KDR) kinase, sequence (P35968 786-1356, species assumed): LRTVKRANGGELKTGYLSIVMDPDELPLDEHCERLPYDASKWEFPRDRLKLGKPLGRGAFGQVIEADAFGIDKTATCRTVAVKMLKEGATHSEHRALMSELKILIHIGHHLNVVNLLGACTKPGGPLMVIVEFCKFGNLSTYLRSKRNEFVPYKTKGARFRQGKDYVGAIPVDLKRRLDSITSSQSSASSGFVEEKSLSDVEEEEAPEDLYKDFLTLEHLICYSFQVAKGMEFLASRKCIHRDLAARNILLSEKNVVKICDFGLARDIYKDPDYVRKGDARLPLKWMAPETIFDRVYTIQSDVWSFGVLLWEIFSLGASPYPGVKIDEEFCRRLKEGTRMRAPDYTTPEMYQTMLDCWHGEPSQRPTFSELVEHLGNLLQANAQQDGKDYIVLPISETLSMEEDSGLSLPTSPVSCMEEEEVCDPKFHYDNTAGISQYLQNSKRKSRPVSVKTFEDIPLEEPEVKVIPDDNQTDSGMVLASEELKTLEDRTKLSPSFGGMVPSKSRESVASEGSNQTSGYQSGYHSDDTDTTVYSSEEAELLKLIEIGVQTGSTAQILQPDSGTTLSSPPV

Compound | IC50 (PDGFRβ kinase) [µM] | IC50 (VEGFR2 (KDR) kinase) [µM]
Cc1ccoc1C(=O)Nc1ccc(-n2ccc(C)c(N3CCc4nc(N)ncc4C3)c2=O)cc1 [Example 17, N-{4-[3-(2-amino-7,8-dihydropyrido[4,3-d]pyrimidin-6(5H)-yl)-4-methyl-2-oxopyridin-1(2H)-yl]phenyl}-3-methyl-2-furamide] | 0.033 | 0.029
Cc1ccn(-c2ccc(C(C)(C)C)cc2)c(=O)c1N1CCc2nc(N)ncc2C1 [Example 4, 3-(2-amino-7,8-dihydropyrido[4,3-d]pyrimidin-6(5H)-yl)-1-(4-tert-butylphenyl)-4-methylpyridin-2(1H)-one] | 0.381 | 0.086
CC(C)(C)c1ccc(-n2cccc(N3CCc4nc(N)ncc4C3)c2=O)cc1 [Example 2, 3-(2-amino-7,8-dihydropyrido[4,3-d]pyrimidin-6(5H)-yl)-1-(4-(tert-butyl)phenyl)pyridin-2(1H)-one] | 0.655 | 0.286
Cc1ccn(-c2cccc(N(C)C)c2)c(=O)c1N1CCc2nc(N)ncc2C1 [Example 14, 3-(2-amino-7,8-dihydropyrido[4,3-d]pyrimidin-6(5H)-yl)-1-[3-(dimethylamino)phenyl]-4-methylpyridin-2(1H)-one] | > 1 | 0.327
Cc1cc[nH]c(=O)c1N1CCc2nc(N)ncc2C1 [Example 3, 3-(2-amino-7,8-dihydropyrido[4,3-d]pyrimidin-6(5H)-yl)-4-methylpyridin-2(1H)-one] | 3.89 | > 10
